# Measurements published in patent publication US20040019092A1, “Non-peptide somatostatin receptor ligands” (priority 2001, published 2004).
# Where “and” joins values, the source holds several entries; their conditions need not be identical. Equal values may be shown once.
# Legend:
# [1] = biological target: T1, SSTR4 (Homo sapiens, UniProt P31391); experiment: Binding SSTR4; conditions: > = extrapolated value; read-out: Bind SSTR4
# T1 construct: host or cells: SRIF receptor expressing cell cultures (general statement only)
# [2] = biological target: T2, SSTR1 (Homo sapiens, UniProt P30872); experiment: Binding SSTR1; conditions: > = extrapolated value; read-out: Bind SSTR1
# T2 construct: host or cells: SRIF receptor expressing cell cultures (general statement only)
# [3] = system: GHRH stimulated GH secretion; experiment: GH secretion in vivo, rat, intravenous infusion with repeated GHRH stimulation
# Method: (§1) Animals, anesthesia: Male rats of a Sprague Dawley strain (Ico:OFA-SD, Iffa-Credo, F-Lyon) of 200-300 g body weight were used. They were kept under standardized conditions and were anesthetized with pentobarbital-sodium (Siegfried, CH Zofingen), 60 mg/kg i.p. for subcutaneous and intraduodenal applications. Animals designed for an infusion experiment were anesthetized with urethane (Siegfried, CH Zofingen), 1.2 g/kg i.p.
# (§2) Stock solutions of the compounds were prepared in water with the addition of the necessary adjunct(s). Further dilutions were prepared allowing 5 mL/kg for subcutaneous application, 2 mL for intraduodenal (i.d.) application or 4.5 mL/kg for intravenous infusion. The solutions for the intravenous application/infusion were made isotonic by addition of glucose to a final concentration of 5%.
# (§3) Applications were made, or, in the case of infusion, started, approximately 10 minutes after induction of anesthesia. No further treatment followed subcutaneous or intraduodenal application. Ten, twenty-five and fifty-five minutes after start of the intravenous infusion the GH secretion was stimulated with repeated intravenous injections of the potent GHRH analog, D-Ala2 GHRH1-29NH2, 1 μg/kg.
# (§4) One hour after subcutaneous or intraduodenal application of the compounds, blood was collected from the trunk after decapitation. In the case of application by infusion, 5 minutes after each application of GHRH, a blood sample of 0.8 mL was taken from a V. jugularis and mixed with EDTA (Eppendorf tubes TOM14, Milian, CH Geneva). The blood samples were kept on ice and spun in a cooled centrifuge. The serum or plasma was separated and frozen.
# (§5) Statistics: In each experiment, 4-5 animals were used per dose, with 6 to 8 animals as the control group that received the vehicle. The GH serum/plasma levels were averaged, the mean of the treated groups expressed in percent of the control group and the ID50-value for the inhibition of the secretion was determined graphically (log-probit) for each experiment. In most experiments with enteral (intraduodenal) application only 1 dose, 10 mg/kg, was given. […] Only inhibitions between 20 and 80% were considered reliable.
# (§6) Two to four experiments were performed. In the case of proper dose response curves, allowing the determination of an ID50 values were averaged logarithmically. In the cases of single dose-experiments, the GH value in percent of control were averaged logarithmically and the ID50 for this value was taken from the table. ID50 values determined at the different time points during the infusion were averaged and this value was included in the tables.
# [4] = biological target: SS1 (Rattus norvegicus, UniProt P30680); experiment: SS-1 binding (Bind SS1 D.H.)
# [5] = system: basal plasma levels of growth hormone, glucagon, insulin and glucose; experiment: Endocrine parameters in the Rhesus monkey after subcutaneous administration; assay type: in vivo
# Method: Therefore, they were further investigated in the Rhesus monkey and their activity profile was determined. Using subcutaneous administration, they were characterized in this species, by measuring their effects on the basal plasma levels of growth hormone, glucagon, insulin as well changes in glucose levels.
# Animals and blood sampling: Rhesus monkeys, fed on the previous day in the morning with fruits only, were placed, slightly anesthetized with ketamin (Ketalar©, Parke-Davis), in primate chairs and brought to the experimental room. A catheter, consisting of an in-dwelling cannula (Vasocan Braunüle, 20G, B. Braun Melsungen AG, D-Melsungen), an extension line made from PP 800/110/260/100 Portex© tubing and a special adapter between cannula and tubing with a minimal void volume, was placed in a saphenic vein. The total volume of this catheter was approximately 0.7 mL. The distal end was placed through a hole in the wall to the adjacent room in order to allow infusion and blood sampling without being noticed by the animal. The animals were monitored with a video system.
# During the entire duration of the experiment an infusion of 5 to 10 mL/h of isotonic saline (NaCl 0.9% Braun, B. Braun Medical AG, CH-Emmenbrücke) containing heparin sodium 80 mg/L (Biochemie GMBH, A-Kundl) was maintained, using a roller pump (Vario-Perpex, Guldener, CH-Zürich). At each sampling time 1.5 mL (twice the void volume of the catheter) was taken in one syringe before collecting the actual blood sample of 2 mL in another syringe. The first 1.5 mL were reinfused immediately after the actual sample had been taken. The sample was mixed with 0.1 mL of a mixture containing EDTA (ethlenediaminetetraacetic acid tetrasodium Fluka, CH-Buchs) and aprotinin (Trasylol©, Bayer) resulting in final concentrations of 1.8 mg/mL and 1000 KIE/mL, respectively. The blood samples were kept on ice and spun in a cooled centrifuge. […]
# Determinations: The blood levels of the hormones were determined by radioimmunoassay (RIA) using the appropriate antisera, antibodies, labels and standards, glucose by an enzymatic assay: […]
# [6] = system: GH secretion; experiment: GH secretion in vivo, rat, subcutaneous application, 1 h (basal); conditions: rat, basal GH secretion, 1 h after subcutaneous application
# Method: as §1
# (§7) Compounds: The compounds were dissolved, optionally with the aid of one or more of the following adjuncts:
# as §2, §3, §4, §5, §6
# [7] = system: GH secretion; experiment: GH secretion in vivo, rat, intraduodenal (enteral) application, 1 h (basal); conditions: basal GH secretion, 1 h after intraduodenal application, mostly approximate ID50 from single 10 mg/kg dose, Ø = no effect at this dose, > = extrapolated value, 10 mg/kg
# Method: as §1, §7, §2, §3, §4, §5, §6
# [8] = biological target: T3, SSTR3 (Homo sapiens, UniProt P32745); experiment: Binding SSTR3; conditions: > = extrapolated value; read-out: Bind SSTR3
# T3 construct: host or cells: SRIF receptor expressing cell cultures (general statement only)
# [9] = biological target: T4, human sst2 receptor sub-type (Homo sapiens, UniProt P30874); experiment: In vitro binding, human sst2 receptor sub-type (SSTR2); conditions: Tables 8/9: Bind SSTR2 nM
# T4 construct: host or cells: SRIF receptor expressing cell cultures (general statement only)
# Method: The in vitro binding affinities for rat cortex SRIF receptors and the human sst2 receptor sub-type was assessed. Further the in vitro inhibition of the GHRH induced GH secretion in primary cultures of rat pituitary cells as well as the in vivo inhibition of GH secretion in the rat after systemic or enteral application was studied. […] Therefore, the in vivo activities of the compounds in rats with respect to inhibition of growth hormone release was also assessed. Most compounds selected were tested by enteral—intraduodenal (i.d.) application. For determination of the absolute activity and for the calculation of an enteral bioavailability, single subcutaneous (s.c.) application of intravenous (i.v.) infusion was used.
# [10] = biological target: T5, SSTR5 (Homo sapiens, UniProt P35346); experiment: Binding SSTR5; conditions: read-out: Bind SSTR5
# T5 construct: host or cells: SRIF receptor expressing cell cultures (general statement only)
# T5 sequence (P35346 whole entry, species assumed): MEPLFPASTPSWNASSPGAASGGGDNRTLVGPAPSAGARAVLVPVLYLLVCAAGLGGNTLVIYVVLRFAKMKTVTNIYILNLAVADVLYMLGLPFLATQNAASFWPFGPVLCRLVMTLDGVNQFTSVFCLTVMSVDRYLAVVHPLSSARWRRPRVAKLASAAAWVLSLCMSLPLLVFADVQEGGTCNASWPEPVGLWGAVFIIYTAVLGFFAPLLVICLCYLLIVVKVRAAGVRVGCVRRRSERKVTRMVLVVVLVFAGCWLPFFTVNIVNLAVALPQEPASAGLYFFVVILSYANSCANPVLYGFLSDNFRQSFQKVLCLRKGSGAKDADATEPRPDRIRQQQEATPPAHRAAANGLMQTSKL
# T3 sequence (P32745 whole entry, species assumed): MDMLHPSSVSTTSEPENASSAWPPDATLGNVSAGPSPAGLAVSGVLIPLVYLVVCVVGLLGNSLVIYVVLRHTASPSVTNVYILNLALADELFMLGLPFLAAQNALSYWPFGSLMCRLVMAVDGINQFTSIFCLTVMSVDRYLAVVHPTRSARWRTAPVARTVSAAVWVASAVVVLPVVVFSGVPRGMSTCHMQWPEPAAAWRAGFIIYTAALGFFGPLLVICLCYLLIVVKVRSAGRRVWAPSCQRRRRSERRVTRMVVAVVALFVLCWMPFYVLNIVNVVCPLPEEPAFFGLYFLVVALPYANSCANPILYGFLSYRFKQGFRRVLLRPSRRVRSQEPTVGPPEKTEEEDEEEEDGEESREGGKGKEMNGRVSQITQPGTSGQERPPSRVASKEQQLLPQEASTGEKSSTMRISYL
# T1 sequence (P31391 whole entry, species assumed): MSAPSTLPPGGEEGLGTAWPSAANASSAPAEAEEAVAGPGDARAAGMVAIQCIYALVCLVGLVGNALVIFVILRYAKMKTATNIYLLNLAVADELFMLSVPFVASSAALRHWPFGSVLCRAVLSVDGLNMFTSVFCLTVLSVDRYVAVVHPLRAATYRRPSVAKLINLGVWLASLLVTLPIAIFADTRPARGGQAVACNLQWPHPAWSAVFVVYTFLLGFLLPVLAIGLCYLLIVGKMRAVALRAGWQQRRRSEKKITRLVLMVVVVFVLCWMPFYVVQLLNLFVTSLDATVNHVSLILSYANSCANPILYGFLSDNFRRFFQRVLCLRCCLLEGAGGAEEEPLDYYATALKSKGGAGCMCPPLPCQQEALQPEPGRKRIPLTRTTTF
# T4 sequence (P30874 whole entry): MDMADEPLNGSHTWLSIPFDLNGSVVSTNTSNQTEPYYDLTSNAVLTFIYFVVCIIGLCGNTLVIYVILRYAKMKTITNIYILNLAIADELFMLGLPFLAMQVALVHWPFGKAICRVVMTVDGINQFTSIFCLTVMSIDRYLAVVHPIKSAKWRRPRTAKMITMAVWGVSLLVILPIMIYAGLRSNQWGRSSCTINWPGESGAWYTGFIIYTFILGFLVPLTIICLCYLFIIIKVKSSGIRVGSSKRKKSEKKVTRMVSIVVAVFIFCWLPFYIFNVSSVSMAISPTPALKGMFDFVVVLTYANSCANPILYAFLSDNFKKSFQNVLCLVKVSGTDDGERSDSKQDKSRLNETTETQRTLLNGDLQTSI
# Chain of SS1 (P30680 whole entry): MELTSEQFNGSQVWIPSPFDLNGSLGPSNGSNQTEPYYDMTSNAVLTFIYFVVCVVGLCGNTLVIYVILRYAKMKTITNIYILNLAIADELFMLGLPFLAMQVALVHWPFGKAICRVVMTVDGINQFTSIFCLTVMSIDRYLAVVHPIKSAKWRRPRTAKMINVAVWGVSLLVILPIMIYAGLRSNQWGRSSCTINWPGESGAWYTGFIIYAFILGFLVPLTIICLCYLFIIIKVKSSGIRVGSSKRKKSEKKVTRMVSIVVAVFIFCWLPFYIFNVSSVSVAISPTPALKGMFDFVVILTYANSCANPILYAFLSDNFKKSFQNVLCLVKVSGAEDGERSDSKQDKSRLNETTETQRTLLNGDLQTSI
# T2 sequence (P30872 whole entry, species assumed): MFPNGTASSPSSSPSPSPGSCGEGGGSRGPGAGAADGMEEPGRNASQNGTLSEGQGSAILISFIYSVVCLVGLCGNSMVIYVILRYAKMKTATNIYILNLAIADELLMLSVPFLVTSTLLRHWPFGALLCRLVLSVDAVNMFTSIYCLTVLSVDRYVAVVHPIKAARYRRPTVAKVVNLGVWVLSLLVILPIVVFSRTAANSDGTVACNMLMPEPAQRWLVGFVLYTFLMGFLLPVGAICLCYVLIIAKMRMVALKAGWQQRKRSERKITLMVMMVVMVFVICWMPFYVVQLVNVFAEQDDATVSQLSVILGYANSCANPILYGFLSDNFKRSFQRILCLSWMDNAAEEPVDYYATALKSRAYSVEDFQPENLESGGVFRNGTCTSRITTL
smiles,measurement,setting,value
Cc1cccc2c(CC3C(=O)N(CCCCCN)C(=O)N3S(=O)(=O)c3ccc(Oc4ccc(O)cc4)c(C(=O)N(C)C)c3)c[nH]c12 (stereo not drawn) [Compound 46],IC50,[1],> 1000 nM
same,IC50,[2],> 1000 nM
same,INFUS. + GHRH ID50 MEAN,"[3]; Table 4, mean of infusion time points",7.89 µg/kg
same,INFUS. + GHRH ID50 15′,"[3]; Table 4, urethan, 15′ of infusion",9.38 µg/kg
same,INFUS. + GHRH ID50 30′,"[3]; Table 4, urethan, 30′ of infusion",8.14 µg/kg
same,INFUS. + GHRH ID50 60′,"[3]; Table 4, urethan, 60′ of infusion",6.43 µg/kg
same,"GH, Ur Inf15′ +GHRH","[3]; Tables 8/9, urethane, 15′ of infusion",9.400 µg/kg/h
same,"GH, UR Inf30′ +GHRH","[3]; Tables 8/9, urethane, 30′ of infusion",8.100 µg/kg/h
same,"GH, UR Inf60′ +GHRH","[3]; Tables 8/9, urethane, 60′ of infusion",6.400 µg/kg/h
same,GH vivo Inf + GHRH ID50 (mean of time points),"[3]; urethane, i.v. infusion, GHRH stimulated, listed as 46 b",7.89 µg/kg/h and 7.900 µg/kg/h
same,Bind SS1 D.H.,[4],0.63 nM
same,"dose levels necessary for inhibition of hormone release, times higher than Octreotride",[5],about 100 times
same,GH vivo s.c. 1 h ID50,[6],7.4 µg/kg and 7 µg/kg
same,GH vivo s.c. 1 h ID50,[6]; listed as 46 b,˜7.40 μg/kg
same,GH vivo i.d. 1 h ID50,[7],19000 µg/kg
same,IC50,[8],450 nM
same,IC50,[9],0.43 nM
same,IC50,[10],90 nM
